{
  "source": "paper PMC9469500",
  "about": "“Targeting an Initiator Allergen Provides Durable and Expansive Protection against House Dust Mite Allergy” (ACS Pharmacology & Translational Science, 2022)",
  "key": {"[1]": {"test_system": "rat alveolar macrophage line NR8383", "assay": "Cellular stability in macrophages", "type": "in vitro ADME", "settings": "100 nM compound", "experimental": "(§1) Cellular Stability of Compounds\n(§2) The cellular stability of compounds in vitro was tested using rat airway epithelial cell line L2 and rat alveolar macrophage line NR8383 (ATCC©CRL-2192™). Assays were performed in replicate and the data expressed as mean ± s.e. mean. L2 cells were cultured to confluence in T25 flasks or 24 -well plates using Kaighn’s modification of Ham’s F12 medium (F12K). Cells were prepared for assay by washing 3 times with serum-free F12K. NR8383 Airway macrophages were grown in suspension culture in F12K, collected by centrifugation, washed in serum-free medium and aliquoted into test plates (1.4 x 10^6 cells/well). Both cell lines were treated with ADI compounds (100 nM) in serum -free F12K in a 5% CO 2 environment at 37 °C. Samples were removed for quantitative analysis by LC -MS-MS using appropriate multiple reaction monitoring transitions for each analyte. […]\n(§3) n-Octanol (0.7 mL), pre -saturated with 10 mM PBS, pH7.4, was added to test compound (~1 mg) in a 2 mL HPLC vial followed by PBS (0. 7 mL), which had been pre -saturated with n -octanol. The mixture was shaken for 90 min before centrifugation for 10 min at 4,000 rpm. The upper organic layer (0.2 mL) and the aqueous layer (0.5 mL) were removed for analysis by LC-MS. Peak identity was confirmed by mass spectrometry and concentration assessed spectrophotometrically using a diode array detector. The log"}, "[2]": {"assay": "Plasma protein binding (rat)", "type": "in vitro ADME"}, "[3]": {"assay": "Pharmacokinetics in rats", "settings": "rat p.o."}, "[4]": {"assay": "plasma stability (rat)", "type": "in vitro ADME"}, "[5]": {"assay": "thermodynamic solubility", "type": "physicochemical", "settings": "thermodynamic from solid"}, "[6]": {"assay": "Plasma protein binding (human)", "type": "in vitro ADME", "experimental": "Plasma Protein Binding Assay\nPlasma protein binding (PPB) was determined using Rapid Equilibrium Dialysis chambers with 8 kDa cut-off inserts (Fisher Scientific UK Ltd, Leicestershire, UK). Rat (Sprague Dawley strain) plasma EDTA K2 (pooled, mixed sex, SeraLab, West Sussex, UK) was centrifuged (13,000 x g, 10 min) to remove precipitates before addition of compounds (initial concentration 5 µM). Concentrations were determined by liquid chromatography-tandem mass spectrometry (LC-MS-MS) (AB Sciex 3200 QTrap) after 4 h incubation at 37 °C with binding being calculated from the concentration of compound in each chamber. Assays were performed in replicate and the data expressed as mean ± s.e.\nCellular Stability of Compounds […]\nKaighn’s modification of Ham’s F12 medium (F12K). Cells were prepared for assay by washing 3 times with serum-free F12K. NR8383 Airway macrophages were grown in suspension culture in F12K, collected by centrifugation, washed in serum-free medium and aliquoted into test plates (1.4 x 10^6 cells/well). Both cell lines were treated with ADI compounds (100 nM) in serum -free F12K in a 5% CO 2 environment at 37 […]\nn-Octanol (0.7 mL), pre -saturated with 10 mM PBS, pH7.4, was added to test compound (~1 mg) in a 2 mL HPLC vial followed by PBS (0. 7 mL), which had been pre -saturated with n -octanol. […]"}, "[7]": {"test_system": "rat hepatocytes", "assay": "hepatocyte stability (rat)", "type": "in vitro ADME"}, "[8]": {"test_system": "human hepatocytes", "assay": "hepatocyte stability (human)", "type": "in vitro ADME"}, "[9]": {"test_system": "unsensitized BN rats", "assay": "HDM extract challenge in unsensitized (naive) BN rats, duration of protection", "type": "in vivo", "settings": "for performance in vivo (maximum inhibition of the eosinophil response, Figure 5A): focused library, durability of inhibition studies"}, "[10]": {"assay": "plasma stability (human)", "type": "in vitro ADME"}, "[11]": {"test_system": "rat airway epithelial cell line L2", "assay": "Cellular stability in L2 cells", "type": "in vitro ADME", "settings": "100 nM compound", "experimental": "as §1, §2, §3"}, "[12]": {"test_system": "rats sensitized to the HDM allergen extract", "assay": "HDM extract challenge in rats sensitized to the HDM allergen extract (BAL cells and mediators)", "type": "in vivo, BN rats", "settings": "single i.t. aerosol dose 2 h before (15 μg/kg compound 1, 46 μg/kg compound 2), BAL 48 h", "text": "Control animals received saline vehicle treatment."}, "[13]": {"target": "T1, Der p 1 (Dermatophagoides pteronyssinus, UniProt P08176)", "T1 construct": "from tissue; host or cells: spent culture medium of Dermatophagoides pteronyssinus (native HDM extract); ammonium sulfate precipitation, size exclusion, SBTI column, Resource Q", "T1 sequence (P08176 99-320)": "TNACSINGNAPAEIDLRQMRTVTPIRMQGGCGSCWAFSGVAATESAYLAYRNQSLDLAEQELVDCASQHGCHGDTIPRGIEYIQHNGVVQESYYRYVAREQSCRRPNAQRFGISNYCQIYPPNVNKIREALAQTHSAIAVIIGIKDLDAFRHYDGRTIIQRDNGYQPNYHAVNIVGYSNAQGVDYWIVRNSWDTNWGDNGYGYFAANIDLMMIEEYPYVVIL", "type": "biochemical", "settings": "Figure 5A, in words", "experimental": "Assays were assembled in 96-well plate format using a PerkinElmer Multiprobe II Plus HTS EX robot (PerkinElmer, UK). […] Reactions were initiated by the addition of 10 μL Der p 1 dissolved in the reaction buffer at 2.5 μg/mL and followed at 30 °C by measurement of fluorescence (excitation/emission 330/420 nm) using either a Fusion Alpha-FP or Envision plate reader fitted with a temperature-controlled carrier (PerkinElmer, UK).\nInhibitor kinetics were analyzed from progress curves. For reversible inhibitors, IC50 values were calculated conventionally."}, "[14]": {"settings": "single i.t. dose (15 μg/kg compound 1, 46 μg/kg compound 2), BAL 48 h"}},
  "note": "Counter-ions that a name gives are not always drawn.",
  "data": [
    {"compound": "CC(C)[C@H](NC(=O)[C@H](C)NC(=O)[C@@H](NC(=O)C1CC[N+](C)(C)CC1)C(C)(C)C)C(=O)C(=O)NCc1ccccc1", "note": "[Compound 2, 4-{(S)-1-[(S)-1-((S)-1-benzylaminooxalyl-2-methyl-propylcarbamoyl)-ethylcarbamoyl]-2,2-dimethyl-propylcarbamoyl}-1,1-dimethyl-piperidinium formate]", "values": [
      {"measurement": "cell stability", "setting": "[1]", "result": "100;100"},
      {"measurement": "plasma protein binding", "setting": "[2]", "result": 61, "unit": "%"},
      {"measurement": "half-life", "setting": "[3]; male, Sprague-Dawley, rat, plasma, po, 5 mg/kg, half-life, fed", "result": 18, "unit": "min"},
      {"measurement": "volume of distribution", "setting": "[3]", "result": 0.3, "unit": "L/kg"},
      {"measurement": "clearance", "setting": "[3]; fasted", "result": "19 (fasted) mL/min/kg"},
      {"measurement": "remaining at 2 h", "setting": "[4]", "result": 100, "unit": "%"},
      {"measurement": "solubility thermodynamic", "setting": "[5]", "result": "> 1600", "unit": "µM"},
      {"measurement": "fraction unbound at 4 h, 5 µM", "setting": "[6]", "result": 0.37},
      {"measurement": "hepatocyte half-life", "setting": "[7]", "result": "∞ (rat); ∞ (human)"},
      {"measurement": "hepatocyte half-life", "setting": "[8]", "result": "∞ (rat); ∞ (human)"},
      {"measurement": "neutrophil response", "setting": "[9]; BAL performed 24 h after HDM extract challenge, dosed 2 h prior", "result": "clear inhibition"},
      {"measurement": "inhibition of BAL monocytes/macrophages (significance)", "setting": "[9]; dosing 120 min prior to challenge, 46 μg/kg i.t., BAL 48 h", "result": "significant"},
      {"measurement": "performance in vivo (maximum inhibition of the eosinophil response, Figure 5A)", "setting": "[9]", "result": "performed well"},
      {"measurement": "effects on BAL neutrophils", "setting": "[9]; intervening pretreatment intervals, BAL 48 h", "result": "insignificant"},
      {"measurement": "effect on BAL neutrophils (significance)", "setting": "[9]; pretreatment 60 min, 46 μg/kg i.t., BAL 48 h", "result": "significant"},
      {"measurement": "effect on BAL neutrophils (significance)", "setting": "[9]; pretreatment 360 min, 46 μg/kg i.t., BAL 48 h", "result": "significant"},
      {"measurement": "effects on BAL neutrophils", "setting": "[9]; short or long pretreatment intervals, BAL 48 h", "result": "inhibitory"},
      {"measurement": "effect on BAL monocytes/macrophages", "setting": "[9]; shorter pretreatment times, BAL 48 h", "result": "modest inhibition"},
      {"measurement": "effect on eosinophils with 6–8 h separation of dose and challenge", "setting": "[9]; [14]", "result": "substantial inhibition"},
      {"measurement": "time of administration before challenge giving peak effects on eosinophils", "setting": "[9]; [14]", "result": 2, "unit": "h"},
      {"measurement": "remaining at 2 h", "setting": "[10]", "result": 100, "unit": "%"},
      {"measurement": "cell stability", "setting": "[11]", "result": "100;100"},
      {"measurement": "changes in BAL cells after HDM challenge", "setting": "[12]; HDM 10 (10 μg Der p 1) i.t. aerosol", "result": "attenuated"},
      {"measurement": "BAL eosinophils after HDM challenge", "setting": "[12]; HDM 10", "result": "eosinophil suppression"},
      {"measurement": "BAL monocytes/macrophages after HDM challenge", "setting": "[12]; HDM 10", "result": "No effects"},
      {"measurement": "BAL neutrophil responses after HDM challenge", "setting": "[12]; HDM 10", "result": "not significant"}
    ]},
    {"compound": "3-((3S,6S,9S)-3-benzyl-9-isopropyl-6-methyl-1,4,7,10,11-pentaoxo-1-phenyl-2,5,8,12-tetraazatridecan-13-yl)benzoic acid [Compound 7]", "values": [
      {"measurement": "potency against the target molecule in vitro", "setting": "[13]", "result": "less potent than others"},
      {"measurement": "BAL neutrophil response: significance of effect (P<0.05)", "setting": "[9]; all other time points than those stated not significant, 50:1 molar equivalents", "result": "significant"},
      {"measurement": "performance in vivo (maximum inhibition of the eosinophil response, Figure 5A)", "setting": "[9]", "result": "effective"},
      {"measurement": "BAL neutrophil response: significance of effect (P<0.05)", "setting": "[9]; pre-treatment at 60 min", "result": "not significant"},
      {"measurement": "BAL neutrophil response: significance of effect (P<0.05)", "setting": "[9]; pre-treatment at 120 min", "result": "not significant"},
      {"measurement": "BAL neutrophil response: significance of effect (P<0.05)", "setting": "[9]; pre-treatment at 360 min", "result": "not significant"},
      {"measurement": "Reduction in BAL eosinophil response: significance of inhibition (P<0.05)", "setting": "[9]; time points other than the stated exceptions, 50:1 molar equivalents i.t. aerosol", "result": "significant"}
    ]}
  ]
}
